Where “and” joins values, the source holds several entries; their conditions need not be identical. Identical values can stand only once. Like-named read-outs stand apart in the source and are kept apart here.
Legend:
[1] = ABTS free radical scavenging assay; format: biochemical; conditions: for ABTS IC50: ABTS radical scavenging, absorbance at 734 nm
Method: The ABTS free radical scavenging antioxidant activity of the compounds was performed by using the previously reported methods. In this activity, the compounds scavenge ABTS^+ cations, and thus, a reduction in absorption is observed at 734 nm using a UV-visible spectrophotometer. Solutions of 7 mM ABTS and 2.45 mM of […] were prepared and were mixed. The mixture was stored at dark for about 16 h to get ABTS cations which appeared dark in color. The solution of ABTS cation was diluted with phosphate buffer (0.01 M having pH of 7.4); the absorbance value (0.70) was adjusted at 734 nm. To confirm the ABTS radicals' scavenging capacity, 300 μL solution of compound was mixed with 3.0 mL of ABTS. After one minute, the reduction in absorption was noted and was monitored for six minutes. The ascorbic acid was used as positive control in this activity. The experiments were repeated three times. The percent inhibitions and its IC50 values were measured as per the standard method.

[2] = DPPH free radical scavenging assay; format: biochemical
Method: The 1,1-diphenyl-2-picrylhydrazyl free radicals of the compounds were performed by using the reported method. Different concentrations of the compounds were mixed with DPPH methanolic solution of 0.004%. After half an hour, the absorption was determined with a double-beam UV-visible spectrophotometer at 517 nm. The same standard (ascorbic acid) was used as in the ABTS assay. The experiments were repeated three times. The percent inhibitions and IC50 values of the compounds were calculated with the standard formula.

AChE = AChE (Homo sapiens, UniProt P22303); assay: biochemical
Method: (§1) The two enzymes break down their respective thiocholine iodide to produce the ion 5-thio-2-nitrobenzoate. […] The enzyme dilutions were prepared in phosphate buffer having pH of 8. Parallelly, the acetyl and butyrylthiocholine iodide solutions (0.05 mM) and DTNB were also prepared in H2O (distilled water of our laboratory) and were stored at 8°C for 15 min. […] The experiments were performed three times. The percent inhibitions and their subsequent IC50 values were calculated as per the standard formula [43].

BChE = BChE (Homo sapiens, UniProt P06276); assay: Anticholinesterase assay (BChE); format: biochemical
Method: as §1

COX-1 = COX-1 (Homo sapiens, UniProt P23219); assay: Anticyclooxygenase assay (COX-1); format: biochemical
Method: (§2) The COX-1 enzyme 10 μL and COX-2 300 units/mL were activated on ice for 5 min. The activation solution was accompanied by a cofactor of 50 μL containing glutathione, hematin, 1.0 mM, and TMPD in Tris-HCl buffer with pH of 8. […] The reaction was initiated when arachidonic acid 20 μL was added. The reaction was incubated for 5 min, and absorbance was measured at 570 nm as per the reported procedure. The experiments were repeated three times.

COX-2 = molecular target: T1, COX-2 (Homo sapiens, UniProt P35354); assay: Anticyclooxygenase assay (COX-2); format: biochemical
T1 sequence (P35354 18-604): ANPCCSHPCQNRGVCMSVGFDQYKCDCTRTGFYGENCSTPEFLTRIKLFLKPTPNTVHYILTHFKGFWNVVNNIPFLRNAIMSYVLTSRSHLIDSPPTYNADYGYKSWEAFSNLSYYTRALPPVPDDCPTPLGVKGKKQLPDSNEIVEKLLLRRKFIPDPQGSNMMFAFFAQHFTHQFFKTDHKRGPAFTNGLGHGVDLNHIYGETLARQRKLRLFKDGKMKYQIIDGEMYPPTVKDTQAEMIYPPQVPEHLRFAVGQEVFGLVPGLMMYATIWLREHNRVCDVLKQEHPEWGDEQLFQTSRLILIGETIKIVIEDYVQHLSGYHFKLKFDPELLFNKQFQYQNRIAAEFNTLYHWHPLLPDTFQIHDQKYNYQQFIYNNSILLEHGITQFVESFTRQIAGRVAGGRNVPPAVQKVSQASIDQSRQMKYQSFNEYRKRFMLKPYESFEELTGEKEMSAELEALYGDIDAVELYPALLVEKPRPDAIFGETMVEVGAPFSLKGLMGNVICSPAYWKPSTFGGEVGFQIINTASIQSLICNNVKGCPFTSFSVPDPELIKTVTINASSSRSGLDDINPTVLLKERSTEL
Method: as §2

5-LOX = assay: 5-Lipoxygenase assay (5-LOX); format: biochemical
Method: The lipoxygenase enzyme 10,000 unit/μL was used in the assay. The substrate used in this assay was linoleic acid. […] The combined mixture was incubated at 25°C for 5 min. Afterwards, linoleic acid was properly mixed with it and was kept for 5 min. […] The experiments were performed three times. The percent 5-LOX inhibitions and the IC50 values were calculated as per the standard formula [44].

[3] = molecular target: T2, protein tyrosine phosphatase 1B (Homo sapiens, UniProt P18031); assay: Protein tyrosine phosphatase 1B assay; format: biochemical
T2 sequence (P18031 1-435): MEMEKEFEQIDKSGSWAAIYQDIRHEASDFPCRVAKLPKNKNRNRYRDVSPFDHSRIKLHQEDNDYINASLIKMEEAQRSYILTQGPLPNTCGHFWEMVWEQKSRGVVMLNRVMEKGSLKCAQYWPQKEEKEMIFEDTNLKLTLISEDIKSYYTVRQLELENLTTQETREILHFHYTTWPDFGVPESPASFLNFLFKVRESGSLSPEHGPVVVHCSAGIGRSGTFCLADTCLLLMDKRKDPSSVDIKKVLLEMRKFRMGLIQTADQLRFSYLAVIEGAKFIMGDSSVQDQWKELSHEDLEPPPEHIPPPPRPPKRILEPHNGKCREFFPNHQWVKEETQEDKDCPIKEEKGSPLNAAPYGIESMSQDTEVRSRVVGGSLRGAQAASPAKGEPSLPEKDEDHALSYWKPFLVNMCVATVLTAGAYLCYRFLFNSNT
Method: In the PTP1B assay, 4-nitrophenylphosphate was used as substrate. The solution of dimethyl glutarate […] in buffer of pH 7 was prepared to be used in the assay. […] The solution was incubated at 37°C for 15 min. […] The experiments were performed three times. The percent inhibitions and their corresponding IC50 values were calculated as per the standard formula [46].

[4] = DPPH radical scavenging, absorbance at 517 nm
[5] = Tables 2 and 3 print no unit, text μg/mL, abstract μM
[6] = Table 2 prints no unit, text b63 μg/mL, abstract μM

Chain of AChE (P22303 32-614): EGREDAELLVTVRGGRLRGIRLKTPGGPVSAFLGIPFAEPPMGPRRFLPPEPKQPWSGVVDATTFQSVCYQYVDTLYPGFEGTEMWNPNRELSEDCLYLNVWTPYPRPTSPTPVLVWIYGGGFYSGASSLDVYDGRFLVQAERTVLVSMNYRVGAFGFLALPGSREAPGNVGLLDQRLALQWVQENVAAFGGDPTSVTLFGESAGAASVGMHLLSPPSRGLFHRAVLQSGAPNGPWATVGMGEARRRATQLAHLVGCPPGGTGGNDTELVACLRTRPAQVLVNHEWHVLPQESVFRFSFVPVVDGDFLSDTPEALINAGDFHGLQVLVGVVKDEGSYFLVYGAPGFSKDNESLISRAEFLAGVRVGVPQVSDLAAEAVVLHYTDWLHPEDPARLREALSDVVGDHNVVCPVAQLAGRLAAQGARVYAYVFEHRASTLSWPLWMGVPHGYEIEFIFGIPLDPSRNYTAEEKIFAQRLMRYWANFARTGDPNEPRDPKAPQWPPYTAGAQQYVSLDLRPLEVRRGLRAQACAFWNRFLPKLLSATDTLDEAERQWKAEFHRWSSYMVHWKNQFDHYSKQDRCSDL
Chain of COX-1 (P23219 24-599): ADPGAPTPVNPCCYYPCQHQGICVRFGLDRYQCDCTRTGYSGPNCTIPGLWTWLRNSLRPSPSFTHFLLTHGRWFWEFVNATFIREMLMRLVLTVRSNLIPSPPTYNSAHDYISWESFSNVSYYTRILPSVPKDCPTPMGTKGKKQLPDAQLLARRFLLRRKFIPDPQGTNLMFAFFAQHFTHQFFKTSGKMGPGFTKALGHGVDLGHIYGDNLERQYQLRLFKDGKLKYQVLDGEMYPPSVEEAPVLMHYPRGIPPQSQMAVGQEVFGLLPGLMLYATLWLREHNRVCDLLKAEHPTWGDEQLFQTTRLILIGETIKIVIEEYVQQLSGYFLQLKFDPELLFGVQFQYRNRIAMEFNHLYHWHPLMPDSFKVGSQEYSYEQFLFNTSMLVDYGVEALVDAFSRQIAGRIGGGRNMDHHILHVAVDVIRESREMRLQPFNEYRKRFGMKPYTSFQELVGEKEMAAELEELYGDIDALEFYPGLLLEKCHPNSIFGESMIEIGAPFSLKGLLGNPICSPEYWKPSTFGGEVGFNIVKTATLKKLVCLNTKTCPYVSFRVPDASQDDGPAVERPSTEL
Chain of BChE (P06276 29-602, species assumed): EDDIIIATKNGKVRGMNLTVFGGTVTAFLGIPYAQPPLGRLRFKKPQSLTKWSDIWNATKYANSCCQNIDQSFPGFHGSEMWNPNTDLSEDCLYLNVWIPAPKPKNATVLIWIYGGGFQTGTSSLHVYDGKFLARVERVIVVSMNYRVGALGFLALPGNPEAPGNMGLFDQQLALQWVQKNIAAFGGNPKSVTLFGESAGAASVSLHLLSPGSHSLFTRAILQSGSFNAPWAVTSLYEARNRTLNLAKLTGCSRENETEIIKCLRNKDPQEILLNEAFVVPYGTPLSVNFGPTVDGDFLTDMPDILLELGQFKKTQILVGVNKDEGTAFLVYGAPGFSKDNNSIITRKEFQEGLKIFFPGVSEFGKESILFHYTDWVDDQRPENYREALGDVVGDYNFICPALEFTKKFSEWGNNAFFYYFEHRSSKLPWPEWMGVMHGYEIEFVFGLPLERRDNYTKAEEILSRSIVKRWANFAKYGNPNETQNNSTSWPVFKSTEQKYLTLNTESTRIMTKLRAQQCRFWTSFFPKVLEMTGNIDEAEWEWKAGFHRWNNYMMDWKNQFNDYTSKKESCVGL

## O=C1O[C@H]([C@@H](O)CO)C(O)=C1O [Ascorbic acid, reference compound]
[1]
  ABTS IC50: 0.211 µg/mL
[2]; [4]
  DPPH IC50: 0.840 µg/mL
[2]; [5]
  DPPH IC50: 0.840 ± 0.14 and 0.840 ± 0.04

## OCc1ccco1 [Compound 1, Furan-2-ylmethanol]
[1]
  ABTS IC50: 7.43 µg/mL
[2]; [4]
  DPPH IC50: 8.19 µg/mL

## CC1=C(O)C(=O)C(C)(O)O1 (centres unmarked) [Compound 2, 2,4-Dihydroxy-2,5-dimethylfuran-3(2H)-one]
[1]
  ABTS IC50: 3.005 µg/mL
[1]; at 31.25 μg/mL
  ABTS percent inhibition: 66.44
[1]; at 62.5 μg/mL
  ABTS percent inhibition: 71.47
[1]; at 125 μg/mL
  ABTS percent inhibition: 77.39
[1]; at 250 μg/mL
  ABTS percent inhibition: 83.34
[1]; at 500 μg/mL
  ABTS percent inhibition: 88.36
[2]; [4]
  DPPH IC50: 1.61 µg/mL

## C=Cc1ccc(O)cc1 [Compound 3, 4-Vinylphenol]
[1]
  ABTS IC50: 12.60 µg/mL
[2]; [4]
  DPPH IC50: 10.27 µg/mL

## COc1c(O)ccc(O)c1C [Compound 4, 2-Methoxy-3-methylbenzene-1,4-diol]
[1]
  ABTS IC50: 4.63 µg/mL
[2]; [4]
  DPPH IC50: 3.19 µg/mL

## COc1cc(C=O)ccc1O [Compound 5, 4-Hydroxy-3-methoxybenzaldehyde]
[1]
  ABTS IC50: 8.28 µg/mL
[2]; [4]
  DPPH IC50: 2.12 µg/mL

## COc1cc(/C=C2\CC(=O)N(c3ccc(O)cc3)C2=O)ccc1O [Compound 5A, (E)-3-(4-Hydroxy-3-methoxybenzylidene)-1-(4-hydroxyphenyl)pyrrolidine-2,5-dione]
[2]
  IC50: 1.05 µM
[2]; [5]
  DPPH IC50: 1.05 ± 0.51
AChE
  IC50: 10.6 µM
AChE; [6]
  IC50: 32.6 µM
AChE; ratio of BChE IC50 to AChE IC50
  SI (selectivity index AChE/BChE): 1.42
BChE
  IC50: 15.1 µM
BChE; [6]
  IC50: 46.4 µM
COX-1; COX-1 IC50, Table 2 prints no unit, text b63 μg/mL, abstract μM
  IC50: 42.8 µM
COX-1; COX-1 IC50, as printed in abstract
  IC50: 13.9 µM
COX-2; COX-2 IC50, Table 2 prints no unit, text b63 μg/mL, abstract μM
  IC50: 3.32 µM
COX-2; COX-2 IC50, as printed in abstract
  IC50: 1.08 µM
COX-2; ratio of COX-1 and COX-2 IC50
  SI (COX-2 selectivity index): 12.9
5-LOX; Table 2 prints no unit, text b63 μg/mL, abstract and b89 μM
  5-LOX IC50: 0.71 ± 0.10
5-LOX; as printed in abstract and b89
  IC50: 0.71 µM

## COc1cc(/C=C2\SC(=O)NC2=O)ccc1O [Compound 5B, (Z)-5-(4-Hydroxy-3-methoxybenzylidene)thiazolidine-2,4-dione]
[2]
  IC50: 1.94 µM
[2]; [5]
  DPPH IC50: 1.94 ± 1.20
[3]; read-out: protein tyrosine phosphatase 1B IC50
  IC50: 53.3 µM
[3]; unit inferred, text b66 μg/mL, abstract μM, read-out: PTP1B IC50 (converted)
  IC50: 212 µM

## COc1cc(CC(C)=O)ccc1O [Compound 6, 1-(4-Hydroxy-3-methoxyphenyl)propan-2-one]
[1]
  ABTS IC50: 9.55 µg/mL
[2]; [4]
  DPPH IC50: 9.99 µg/mL

Source: paper PMC9020998 (Oxidative Medicine and Cellular Longevity, 2022)
